# Measurements: ChEMBL document CHEMBL4311999, “3-Hydrazinoisatin-based benzenesulfonamides as novel carbonic anhydrase inhibitors endowed with anticancer activity: Synthesis, in vitro biological evaluation and in silico insights” (Eur J Med Chem, 2019)
# How the values were obtained:
# Carbonic anhydrase 2 = Carbonic anhydrase 2 (Homo sapiens, UniProt P00918); assay: Inhibition of recombinant human carbonic anhydrase 2 preincubated for 15 mins by phenol red dye based stopped flow CO2 hydration assay
# K562 = assay: Growth inhibition of human K562 cells at 10 uM incubated for 48 hrs by sulforhodamine B assay relative to control; assay type: functional; details: K562, 48 h, read-out: GI
# RPMI-8226 = assay: Growth inhibition of human RPMI8226 cells at 10 uM incubated for 48 hrs by sulforhodamine B assay relative to control; assay type: functional; details: RPMI-8226, 48 h, read-out: GI
# SF-268 = assay: Growth inhibition of human SF268 cells at 10 uM incubated for 48 hrs by sulforhodamine B assay relative to control; assay type: functional; details: SF-268, 48 h, read-out: GI
# SNB-19 = assay: Growth inhibition of human SNB19 cells at 10 uM incubated for 48 hrs by sulforhodamine B assay relative to control; assay type: functional; details: SNB-19, 48 h, read-out: GI
# MDA-MB-435 = assay: Growth inhibition of human MDA-MB-435 cells at 10 uM incubated for 48 hrs by sulforhodamine B assay relative to control; assay type: functional; details: MDA-MB-435, 48 h, read-out: GI
# PC-3 = assay: Growth inhibition of human PC3 cells at 10 uM incubated for 48 hrs by sulforhodamine B assay relative to control; assay type: functional; details: PC-3, 48 h, read-out: GI
# RXF 393 = assay: Growth inhibition of human RXF393 cells at 10 uM incubated for 48 hrs by sulforhodamine B assay relative to control; assay type: functional; details: RXF 393, 48 h, read-out: GI
# 786-0 = assay: Growth inhibition of human 786-0 cells at 10 uM incubated for 48 hrs by sulforhodamine B assay relative to control; assay type: functional; details: 786-0, 48 h, read-out: GI
# A498 = assay: Growth inhibition of human A498 cells at 10 uM incubated for 48 hrs by sulforhodamine B assay relative to control; assay type: functional; details: A498, 48 h, read-out: GI
# NCI/ADR-RES = assay: Growth inhibition of human NCI/ADR-RES cells at 10 uM incubated for 48 hrs by sulforhodamine B assay relative to control; assay type: functional; details: read-out: GI
# UACC-62 = assay: Growth inhibition of human UACC62 cells at 10 uM incubated for 48 hrs by sulforhodamine B assay relative to control; assay type: functional; details: UACC-62, 48 h, read-out: GI
# SK-MEL-5 = assay: Growth inhibition of human SK-MEL-5 cells at 10 uM incubated for 48 hrs by sulforhodamine B assay relative to control; assay type: functional; details: SK-MEL-5, 48 h, read-out: GI
# BT-549 = assay: Growth inhibition of human BT549 cells at 10 uM incubated for 48 hrs by sulforhodamine B assay relative to control; assay type: functional; details: BT-549, 48 h, read-out: GI
# MDA-MB-468 = assay: Growth inhibition of human MDA-MB-468 cells at 10 uM incubated for 48 hrs by sulforhodamine B assay relative to control; assay type: functional; details: MDA-MB-468, 48 h, read-out: GI
# HCT-116 = assay: Inhibition of clonogenicity in human HCT116 cells assessed as reduction in colony formation treated for 10 days by crystal violet staining; assay type: functional, cell-based
# CCRF-CEM = assay: Growth inhibition of human CCRF-CEM cells at 10 uM incubated for 48 hrs by sulforhodamine B assay relative to control; assay type: functional; details: read-out: GI
# EKVX = assay: Growth inhibition of human EKVX cells at 10 uM incubated for 48 hrs by sulforhodamine B assay relative to control; assay type: functional; details: read-out: GI
# NCI-H23 = assay: Growth inhibition of human NCI-H23 cells at 10 uM incubated for 48 hrs by sulforhodamine B assay relative to control; assay type: functional; details: NCI-H23, 48 h, read-out: GI
# COLO 205 = assay: Growth inhibition of human COLO205 cells at 10 uM incubated for 48 hrs by sulforhodamine B assay relative to control; assay type: functional; details: COLO 205, 48 h, read-out: GI
# HT-29 = assay: Growth inhibition of human HT-29 cells at 10 uM incubated for 48 hrs by sulforhodamine B assay relative to control; assay type: functional; details: HT-29, 48 h, read-out: GI
# KM12 = assay: Growth inhibition of human KM12 cells at 10 uM incubated for 48 hrs by sulforhodamine B assay relative to control; assay type: functional; details: KM12, 48 h, read-out: GI
# LOX IMVI = assay: Growth inhibition of human LOXIMVI cells at 10 uM incubated for 48 hrs by sulforhodamine B assay relative to control; assay type: functional; details: read-out: GI
# SK-MEL-2 = assay: Growth inhibition of human SK-MEL-2 cells at 10 uM incubated for 48 hrs by sulforhodamine B assay relative to control; assay type: functional; details: SK-MEL-2, 48 h, read-out: GI
# TK-10 = assay: Growth inhibition of human TK10 cells at 10 uM incubated for 48 hrs by sulforhodamine B assay relative to control; assay type: functional; details: TK-10, 48 h, read-out: GI
# SK-MEL-28 = assay: Growth inhibition of human SK-MEL-28 cells at 10 uM incubated for 48 hrs by sulforhodamine B assay relative to control; assay type: functional; details: SK-MEL-28, 48 h, read-out: GI
smiles,measurement,setting,value
NS(=O)(=O)c1ccc(N/N=C2\C(=O)N(Cc3ccccc3)c3ccc(Cl)cc32)cc1,Ki,Carbonic anhydrase 2,52.7 nM
same,inhibition of growth at 10 µM,K562,18%
same,inhibition of growth at 10 µM,RPMI-8226,10%
same,inhibition of growth at 10 µM,SF-268,35%
same,inhibition of growth at 10 µM,SNB-19,59%
same,inhibition of growth at 10 µM,MDA-MB-435,21%
same,inhibition of growth at 10 µM,PC-3,16%
same,inhibition of growth at 10 µM,RXF 393,55%
same,inhibition of growth at 10 µM,786-0,52%
same,inhibition of growth at 10 µM,A498,22%
same,inhibition of growth at 10 µM,NCI/ADR-RES,18%
same,inhibition of growth at 10 µM,UACC-62,34%
same,inhibition of growth at 10 µM,SK-MEL-5,20%
same,inhibition of growth at 10 µM,BT-549,19%
same,inhibition of growth at 10 µM,MDA-MB-468,17%
CCOC(=O)CN1C(=O)/C(=N\Nc2ccc(S(N)(=O)=O)cc2)c2cc(Br)ccc21,inhibition,HCT-116,Dose-dependent effect
same,Ki,Carbonic anhydrase 2,630 nM
same,inhibition of growth at 10 µM,CCRF-CEM,47%
same,inhibition of growth at 10 µM,K562,35%
same,inhibition of growth at 10 µM,RPMI-8226,21%
same,inhibition of growth at 10 µM,EKVX,17%
same,inhibition of growth at 10 µM,NCI-H23,23%
same,inhibition of growth at 10 µM,COLO 205,42%
same,inhibition of growth at 10 µM,HT-29,36%
same,inhibition of growth at 10 µM,KM12,30%
same,inhibition of growth at 10 µM,LOX IMVI,14%
same,inhibition of growth at 10 µM,SK-MEL-2,11%
same,inhibition of growth at 10 µM,PC-3,29%
same,inhibition of growth at 10 µM,TK-10,14%
same,inhibition of growth at 10 µM,RXF 393,57%
same,inhibition of growth at 10 µM,NCI/ADR-RES,10%
same,inhibition of growth at 10 µM,SK-MEL-5,12%
same,inhibition of growth at 10 µM,SK-MEL-28,15%
